Measurements as given in the supplement of paper PMC10307832.

Key:
Experiment in all cases: relative viability (nuclei count vs DMSO), 5 days (fraction); higher = more cells survive
Olaparib + Palbociclib = compound: O=C(c1cc(Cc2n[nH]c(=O)c3ccccc23)ccc1F)N1CCN(C(=O)C2CC2)CC1 [Olaparib] + CC(=O)c1c(C)c2cnc(Nc3ccc(N4CCNCC4)cn3)nc2n(C2CCCC2)c1=O [Palbociclib] (partner 0.5 µM)
In short: (§1)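 Medians of duplicate plates are given as relative viability. That measure is the nuclei count in treated wells divided by the count in vehicle wells. Counts were taken on 4× images of lung cancer cell lines in 1536-well plates, 5 days after pin-tool dosing the day after seeding with one drug alone or a fixed anchor-drug dose plus five library-drug doses (not always all listed) in √10 steps.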

Carfilzomib + Lapatinib = compound: CC(C)C[C@H](NC(=O)[C@H](CCc1ccccc1)NC(=O)CN1CCOCC1)C(=O)N[C@@H](Cc1ccccc1)C(=O)N[C@@H](CC(C)C)C(=O)[C@@]1(C)CO1 [Carfilzomib] + CS(=O)(=O)CCNCc1ccc(-c2ccc3ncnc(Nc4ccc(OCc5cccc(F)c5)c(Cl)c4)c3c2)o1 [Lapatinib] (partner 2 µM)
In short: as §1

Olaparib + Phenformin = compound: O=C(c1cc(Cc2n[nH]c(=O)c3ccccc23)ccc1F)N1CCN(C(=O)C2CC2)CC1 [Olaparib] + N=C(N)NC(=N)NCCc1ccccc1 [Phenformin] (partner 250 µM)
In short: as §1

Crizotinib + Olaparib = compound: C[C@@H](Oc1cc(-c2cnn(C3CCNCC3)c2)cnc1N)c1c(Cl)ccc(F)c1Cl [Crizotinib] + O=C(c1cc(Cc2n[nH]c(=O)c3ccccc23)ccc1F)N1CCN(C(=O)C2CC2)CC1 [Olaparib] (partner 8 µM)
In short: as §1

Cell Line	relative viability (Olaparib + Palbociclib; first compound 0.08 µM)	relative viability (Olaparib + Palbociclib; first compound 0.253 µM)	relative viability (Olaparib + Palbociclib; first compound 2.53 µM)	relative viability (Olaparib + Palbociclib; first compound 8 µM)	relative viability (Carfilzomib + Lapatinib; first compound 0.001 µM)	relative viability (Carfilzomib + Lapatinib; first compound 0.003162 µM)	relative viability (Carfilzomib + Lapatinib; first compound 0.01 µM)	relative viability (Carfilzomib + Lapatinib; first compound 0.03162 µM)	relative viability (Carfilzomib + Lapatinib; first compound 0.1 µM)	relative viability (Olaparib + Phenformin; first compound 0.08 µM)	relative viability (Olaparib + Phenformin; first compound 0.253 µM)	relative viability (Olaparib + Phenformin; first compound 2.53 µM)	relative viability (Olaparib + Phenformin; first compound 8 µM)	relative viability (Crizotinib + Olaparib; first compound 0.01 µM)	relative viability (Crizotinib + Olaparib; first compound 0.03162 µM)	relative viability (Crizotinib + Olaparib; first compound 0.1 µM)	relative viability (Crizotinib + Olaparib; first compound 0.3162 µM)	relative viability (Crizotinib + Olaparib; first compound 1 µM)
201T	0.392	0.323	0.388	0.337	1.02	0.961	1.05	1.04	0.88	0.396	0.465	0.481	0.43	0.776	0.83	0.892	0.846	0.861
A549					0.885	1.05	0.931	0.359	0.0624	0.234	0.217	0.172	0.121	0.38	0.259	0.362		0.456
A-427	0.512	0.488	0.503	0.415	0.925	1.09	1.09	0.972	0.157	0.461	0.259	0.258	0.241	0.745	0.777	0.783		0.623
ABC-1	0.814		0.476	0.862	1.08	1.54	1.2	0.499	0.516	0.239	0.234	0.243	0.276		1.11	0.823		0.63
BEN	0.531	0.454	0.451	0.51	0.635	0.819	0.854	0.553	0.267		0.292	0.28	0.261	1.04	1.06	0.924	0.974	1.15
CAL-12T	0.0401	0.407	0.329	0.479		0.691	0.759	0.618	0.207	0.715	0.497	0.539	0.558	0.811	0.794	0.743	0.709	0.723
COR-L23	0.314	0.241	0.223	0.14	0.906	1.16	0.895	0.0642	0.0567	0.492	0.383	0.408	0.294	0.298	0.343	0.372	0.366	0.382
COR-L 105	0.401	0.409	0.404	0.398	0.348	0.377	0.386	0.324	0.289	0.535	0.42	0.479	0.418	0.661	0.689	0.757	0.584	0.7
Calu-6					1.08	1.12	1.13	0.135	0.116					0.606	0.571	0.522	0.624	0.549
ChaGo-K-1	1.03	0.908	0.908	0.664						0.624	0.441	0.475	0.42	0.422	0.413	0.418	0.297	0.444
EBC-1					0.228	0.203	0.208	0.169	0.144					0.563	0.664	0.643	0.182	0.154
EKVX	0.38	0.364	0.371	0.41	0.221	0.416	0.212	0.183	0.137	0.268	0.243	0.221	0.248	0.754	0.922	0.866	0.777	0.793
EMC-BAC-2	0.518	0.512	0.517	0.472	0.89	0.958	0.879	0.843	0.471	0.558	0.504	0.558	0.437	0.501	0.489	0.499		0.474
EPLC-272H	0.427	0.298	0.339	0.318	0.804	1.47	1.06	0.298	0.0991	0.389	0.298	0.289	0.338	0.624	0.729	0.805	0.974	0.837
H3255	0.32	0.315	0.336	0.306	0.252	0.338	0.259	0.225	0.296	0.435	0.342	0.38	0.385	0.565	0.56	0.575	0.518	0.627
HARA	0.216	0.268	0.271	0.276	0.817	0.911	0.882	0.0695	0.0699	0.584	0.398	0.36	0.36	0.876	0.929	0.957	0.793	0.635
